Among the data in patent US8927709B2, “Hepatitis C virus inhibitors” (Enanta Pharmaceuticals, Inc., priority 2009, dated 2015) are EC50 values, retold here.

The experiment deals with HCV 1b genotype replicon. Kind of experiment: HCV genotype-1b replicon assay (qRT-PCR or luciferase). The experiment is classed as cell-based. As to conditions: Hepatitis C virus, HCV 1b replicon cell lines (SGR 11-7 or Huh-luc/neo-ET), a/b entries tested as mixture of the two compounds, read-out: Genotype-1b replicon EC50 Range. The source says:
HCV replicon cell lines (kindly provided by R. Bartenschlager) isolated from colonies as described by Lohman et. al. (Lohman et al. (1999) Science 285: 110-113, expressly incorporated by reference in its entirety) and used for all experiments. The HCV replicon has the nucleic acid sequence set forth in EMBL Accession No.: AJ242651, the coding sequence of which is from nucleotides 1801 to 8406.
The coding sequence of the published HCV replicon was synthesized and subsequently assembled in a modified plasmid pBR322 (Promega, Madison, Wis.) using standard molecular biology techniques. […]
EC50 values of single agent compounds and combinations were determined by HCV RNA detection using quantitative RT-PCR, according to the manufacturer's instructions, with a TAQMAN® One-Step RT-PCR Master Mix Reagents Kit (Cat# AB 4309169, Applied Biosystems) on an ABI Model 7500 thermocycler. The TaqMan primers used for detecting and quantifying HCV RNA were obtained from Integrated DNA Technologies. HCV RNA was normalized to GAPDH RNA levels in drug-treated cells, which was detected and quantified using the Human GAPDH Endogenous Control Mix (Applied Biosystems, AB 4310884E). […] Chemical agent cytotoxicity was evaluated using an MTS assay according to the manufacturer's directions (Promega). […]
(A replicon is a self-replicating genome or part of one, used to study replication in cells.)

Turning to `COC(=O)N[C@H](C(=O)N1CCC(c2nc3cc(-c4ccc(-c5c[nH]c([C@@H]6CCCN6C(=O)[C@@H](NC(=O)OC)C(C)C)n5)cc4)ccc3[nH]2)C1)C(C)C` (some centres unmarked) [Example 343], the concentration giving a half-maximal response (EC50) was 1 to 10 nM. In the case of `COC(=O)N[C@H](C(=O)N1CCC(c2nc(-c3ccc(-c4ccc(-c5c[nH]c([C@@H]6CCCN6C(=O)[C@@H](NC(=O)OC)C(C)C)n5)cc4)cc3)c[nH]2)C1)C(C)C` (some centres unmarked) [Example 345], the concentration giving a half-maximal response (EC50) is < 1 nM.

The EC50 is the concentration needed to bring the measured effect to its halfway point.
